{"source": "ChEMBL document CHEMBL1201862", "about": "“PubChem BioAssay data set” (2004)", "key": {"Protein skinhead-1": {"biological_target": "T1, Protein skinhead-1 (Caenorhabditis elegans, UniProt P34707)", "T1 sequence (P34707 whole entry)": "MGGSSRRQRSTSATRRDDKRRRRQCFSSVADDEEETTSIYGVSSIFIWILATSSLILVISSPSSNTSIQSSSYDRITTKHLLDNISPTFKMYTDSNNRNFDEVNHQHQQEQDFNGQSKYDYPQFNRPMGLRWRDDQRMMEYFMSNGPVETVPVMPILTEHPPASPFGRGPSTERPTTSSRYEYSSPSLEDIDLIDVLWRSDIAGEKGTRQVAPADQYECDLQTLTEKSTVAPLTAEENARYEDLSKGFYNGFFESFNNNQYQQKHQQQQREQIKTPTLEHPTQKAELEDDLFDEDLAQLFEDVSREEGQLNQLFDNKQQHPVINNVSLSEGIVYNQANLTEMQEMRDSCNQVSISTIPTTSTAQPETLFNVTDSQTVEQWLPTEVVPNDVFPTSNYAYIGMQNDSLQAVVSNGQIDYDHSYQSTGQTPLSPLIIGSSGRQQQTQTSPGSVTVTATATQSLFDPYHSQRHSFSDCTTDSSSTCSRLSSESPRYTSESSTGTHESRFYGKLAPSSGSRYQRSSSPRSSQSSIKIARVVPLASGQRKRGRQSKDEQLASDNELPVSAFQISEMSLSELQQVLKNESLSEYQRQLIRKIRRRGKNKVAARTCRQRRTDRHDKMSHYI", "type": "functional"}, "Nonstructural protein 1": {"biological_target": "Nonstructural protein 1 (Influenza A virus, UniProt Q194T2)", "sequence (Q194T2 whole entry)": "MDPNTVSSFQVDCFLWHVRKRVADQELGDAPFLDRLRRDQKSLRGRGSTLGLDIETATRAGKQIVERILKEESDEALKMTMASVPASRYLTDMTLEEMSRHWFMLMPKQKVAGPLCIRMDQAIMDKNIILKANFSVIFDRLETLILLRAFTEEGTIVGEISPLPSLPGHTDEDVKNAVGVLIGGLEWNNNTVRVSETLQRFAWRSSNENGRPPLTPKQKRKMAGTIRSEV", "type": "functional, Influenza A virus (A/California/07/2009(H1N1))"}, "[1]": {"biological_target": "T2, DNA repair and recombination protein RAD54-like (Homo sapiens, UniProt Q92698)", "T2 sequence (Q92698 whole entry)": "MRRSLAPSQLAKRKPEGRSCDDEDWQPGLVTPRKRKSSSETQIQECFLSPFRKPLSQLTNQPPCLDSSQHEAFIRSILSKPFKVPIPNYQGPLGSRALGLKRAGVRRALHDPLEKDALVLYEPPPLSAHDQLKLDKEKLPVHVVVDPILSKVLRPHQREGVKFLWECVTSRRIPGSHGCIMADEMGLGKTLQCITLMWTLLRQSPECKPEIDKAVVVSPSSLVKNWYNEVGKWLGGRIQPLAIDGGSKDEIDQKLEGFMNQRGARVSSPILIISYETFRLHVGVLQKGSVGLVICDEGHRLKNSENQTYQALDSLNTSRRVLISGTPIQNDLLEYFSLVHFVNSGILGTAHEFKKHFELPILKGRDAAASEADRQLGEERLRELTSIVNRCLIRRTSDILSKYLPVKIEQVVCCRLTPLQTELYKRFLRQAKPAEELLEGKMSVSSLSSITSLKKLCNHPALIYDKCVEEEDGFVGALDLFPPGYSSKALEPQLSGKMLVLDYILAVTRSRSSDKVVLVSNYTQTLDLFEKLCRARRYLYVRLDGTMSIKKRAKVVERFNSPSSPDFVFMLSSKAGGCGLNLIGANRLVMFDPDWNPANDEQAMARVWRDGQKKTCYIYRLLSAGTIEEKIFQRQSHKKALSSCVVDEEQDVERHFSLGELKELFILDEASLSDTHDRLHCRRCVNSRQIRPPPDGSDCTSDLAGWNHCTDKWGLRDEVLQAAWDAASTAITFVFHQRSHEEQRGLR", "assay": "inhibitors of human RAD54 branch migration, confirmation, biochemical, fluorescence, cherry-picked samples, dose series (AID 651657)", "type": "functional"}, "[2]": {"assay": "off-target signal loss in HeLa-CEM21 co-culture – HeLa F-luc CTL cells, cherry-picked, counter-screen for HIV-1 Env fusion inhibitor project, dose response (AID 652040);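 note: potency for signal decrease marking cytotoxic or nonspecific inhibition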", "type": "functional, cell-based"}, "[3]": {"assay": "ZM109 Env clade C HIV-1 fusion inhibitors, dose response, HeLa effector, CEM target cells, luciferase, cherry-pick (AID 652058)", "type": "functional, cell-based"}, "[4]": {"assay": "inhibitors of HIV Env-driven cell fusion, dose response, cherry-pick (AID 652057)", "type": "functional, cell-based"}, "[5]": {"biological_target": "T3, Short transient receptor potential channel 4 (Mus musculus, UniProt Q9QUQ5)", "T3 sequence (Q9QUQ5 whole entry)": "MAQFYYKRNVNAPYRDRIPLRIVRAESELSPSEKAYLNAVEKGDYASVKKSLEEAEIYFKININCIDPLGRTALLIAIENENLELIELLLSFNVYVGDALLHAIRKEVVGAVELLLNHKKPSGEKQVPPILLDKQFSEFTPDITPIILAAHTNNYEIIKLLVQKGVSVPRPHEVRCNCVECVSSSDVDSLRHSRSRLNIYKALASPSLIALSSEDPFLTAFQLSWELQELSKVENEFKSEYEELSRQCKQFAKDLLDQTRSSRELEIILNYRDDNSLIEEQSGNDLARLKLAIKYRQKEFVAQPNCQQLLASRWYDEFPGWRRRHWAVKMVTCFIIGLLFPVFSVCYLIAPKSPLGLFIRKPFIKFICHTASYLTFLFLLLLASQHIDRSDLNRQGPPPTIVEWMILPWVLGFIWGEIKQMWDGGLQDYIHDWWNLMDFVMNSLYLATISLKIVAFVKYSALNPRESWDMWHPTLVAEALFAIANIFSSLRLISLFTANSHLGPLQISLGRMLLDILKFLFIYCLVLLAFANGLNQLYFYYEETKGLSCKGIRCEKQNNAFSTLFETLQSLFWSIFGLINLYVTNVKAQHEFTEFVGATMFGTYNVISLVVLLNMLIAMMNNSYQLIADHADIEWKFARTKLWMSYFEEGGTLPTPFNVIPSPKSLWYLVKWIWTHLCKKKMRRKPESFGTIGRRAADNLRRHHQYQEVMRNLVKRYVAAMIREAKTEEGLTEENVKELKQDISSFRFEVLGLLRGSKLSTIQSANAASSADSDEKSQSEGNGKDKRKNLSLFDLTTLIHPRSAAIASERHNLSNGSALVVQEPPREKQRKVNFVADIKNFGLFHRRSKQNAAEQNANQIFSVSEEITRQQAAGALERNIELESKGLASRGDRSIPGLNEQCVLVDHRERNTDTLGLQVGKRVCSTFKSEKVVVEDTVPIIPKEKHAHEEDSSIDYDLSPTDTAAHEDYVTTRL", "assay": "mouse TRPC4 channel inhibitors, dose response, cell-based, HEK293 TRPC4/mu-opioid, Fluo-4 calcium (AID 434942);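 note: potency of inhibitors blocking the TRPC4 calcium response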", "type": "functional"}, "[6]": {"assay": "inhibitors of clade B AD8 Env fusion, dose response, cell-based, cherry-pick (AID 652062);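 note: potency is for inhibitors of fusion seen as a drop in luminescence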", "type": "functional"}, "[7]": {"biological_target": "T4, DNA repair protein RAD52 homolog (Homo sapiens, UniProt P43351)", "T4 sequence (P43351 whole entry)": "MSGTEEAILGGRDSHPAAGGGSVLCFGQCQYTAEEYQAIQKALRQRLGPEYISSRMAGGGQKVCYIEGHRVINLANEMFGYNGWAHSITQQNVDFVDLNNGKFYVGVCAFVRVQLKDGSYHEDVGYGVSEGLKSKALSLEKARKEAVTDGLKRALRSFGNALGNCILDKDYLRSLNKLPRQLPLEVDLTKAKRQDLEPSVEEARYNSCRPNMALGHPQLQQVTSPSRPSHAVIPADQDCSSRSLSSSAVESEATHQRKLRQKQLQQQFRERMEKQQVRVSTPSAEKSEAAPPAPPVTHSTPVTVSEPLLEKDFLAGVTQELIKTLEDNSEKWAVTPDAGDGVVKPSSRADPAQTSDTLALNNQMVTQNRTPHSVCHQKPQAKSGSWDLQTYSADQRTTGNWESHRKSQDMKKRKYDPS", "type": "functional, biochemical"}, "[8]": {"biological_target": "Heat shock protein HSP 90-alpha (Homo sapiens, UniProt P07900)", "type": "functional, organism-based"}, "[9]": {"biological_target": "T5, Ubiquitin-conjugating enzyme E2 N (Homo sapiens, UniProt P61088)", "T5 sequence (P61088 whole entry)": "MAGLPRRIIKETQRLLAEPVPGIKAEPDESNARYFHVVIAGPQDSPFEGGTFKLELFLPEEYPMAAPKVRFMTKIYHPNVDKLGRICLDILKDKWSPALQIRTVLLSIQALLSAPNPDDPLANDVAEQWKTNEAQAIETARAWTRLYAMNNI", "type": "functional"}, "INS1": {"test_system": "INS1", "assay": "beta cell apoptosis inhibitors, cytokine rescue, dose response, luminescence, retest (AID 449756);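 note: cell death triggered by IL-1 beta plus TNF-alpha plus IFN-gamma mixture; protective hits raise ATP signal compared with cytokine alone wells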", "type": "functional, cell-based", "conditions": "Rattus norvegicus"}, "[10]": {"assay": "P. falciparum Dd2 growth inhibitors, dose response, SYBR Green, cherry-picked samples (AID 1159567)", "type": "functional, cell-based"}, "Large T antigen": {"biological_target": "Large T antigen (Simian virus 40, UniProt P03070)", "sequence (P03070 whole entry)": "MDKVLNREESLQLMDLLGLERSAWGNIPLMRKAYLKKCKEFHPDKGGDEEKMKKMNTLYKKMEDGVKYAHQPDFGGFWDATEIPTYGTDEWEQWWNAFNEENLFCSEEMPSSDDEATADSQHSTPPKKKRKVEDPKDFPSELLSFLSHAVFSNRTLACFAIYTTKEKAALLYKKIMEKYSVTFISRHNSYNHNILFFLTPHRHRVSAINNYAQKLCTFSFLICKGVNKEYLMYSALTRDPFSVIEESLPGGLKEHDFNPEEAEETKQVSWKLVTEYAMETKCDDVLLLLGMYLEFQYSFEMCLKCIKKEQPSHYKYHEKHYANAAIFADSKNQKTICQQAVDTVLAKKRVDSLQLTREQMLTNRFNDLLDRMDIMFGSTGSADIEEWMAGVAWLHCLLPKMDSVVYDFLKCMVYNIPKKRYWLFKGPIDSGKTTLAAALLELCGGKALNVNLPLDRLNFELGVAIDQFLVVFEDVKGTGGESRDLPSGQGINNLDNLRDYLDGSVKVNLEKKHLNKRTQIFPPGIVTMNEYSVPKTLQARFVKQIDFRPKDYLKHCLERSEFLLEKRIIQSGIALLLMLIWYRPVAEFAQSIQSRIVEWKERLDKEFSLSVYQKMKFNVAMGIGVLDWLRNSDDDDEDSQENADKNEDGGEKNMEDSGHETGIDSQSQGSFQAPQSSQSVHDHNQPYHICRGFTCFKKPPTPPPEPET", "type": "functional, Betapolyomavirus macacae"}}, "note": "The source made the active and inactive calls.", "data": [{"smiles": "CC(=O)N1/C(=C/c2ccc(N(C)C)cc2)C(=O)c2ccccc21", "values": [{"measurement": "IC50", "setting": "Protein skinhead-1", "result": "76.9 µM (inactive)"}, {"measurement": "IC50", "setting": "Nonstructural protein 1", "result": "16.7 µM (active)"}]}, {"smiles": "O=C(CSc1n[nH]c(-c2ccccn2)n1)Nc1ccccc1F", "values": [{"measurement": "IC50", "setting": "Nonstructural protein 1", "result": "7.23 µM (active)"}]}, {"smiles": "CN1CCN(c2cc(N3CCNCC3)ccc2[N+](=O)[O-])CC1", "values": [{"measurement": "AC50", "setting": "[1]", "result": "14.5 µM (active)"}]}, {"smiles": "CCN(CC)CCCNc1nc(-c2ccccc2)nc2ccccc12", "values": [{"measurement": "AC50", "setting": "[1]", "result": "13 µM (active)"}]}, {"smiles": "Clc1ccc(-c2csc3ncnc(NCCN4CCOCC4)c23)cc1", "values": [{"measurement": "AC50", "setting": "[2]", "result": "> 70 µM (inactive)"}, {"measurement": "AC50", "setting": "[3]", "result": "2.24 µM (active)"}, {"measurement": "AC50", "setting": "[4]", "result": "3.74 µM (active)"}, {"measurement": "EC50", "setting": "[5]", "result": "3.35 µM (active)"}, {"measurement": "AC50", "setting": "[6]", "result": "18.1 µM (active)"}]}, {"smiles": "O=C(NN=Cc1cccc([N+](=O)[O-])c1)c1cc[n+](CCO)cc1", "values": [{"measurement": "AC50", "setting": "[7]", "result": "14.1 µM (active)"}]}, {"smiles": "COc1ccc(Nc2cc(C)nc3ccc(OC)cc23)cc1", "values": [{"measurement": "AC50", "setting": "[7]", "result": "15 µM (active)"}, {"measurement": "AC50", "setting": "[1]", "result": "20.5 µM (active)"}, {"measurement": "EC50", "setting": "[5]", "result": "4.73 µM (active)"}]}, {"smiles": "CCOc1ccccc1-c1c2cc(O)c(=O)cc-2oc2cc(O)c(O)cc12", "values": [{"measurement": "IC50", "setting": "Nonstructural protein 1", "result": "28.1 µM (active)"}, {"measurement": "AC50", "setting": "[8]", "result": "6.24 µM (active)"}]}, {"smiles": "CN(C)c1ccc(NC(=O)CN2CCC(NC(=O)C3CCCCC3)CC2)cc1", "values": [{"measurement": "AC50", "setting": "[7]", "result": "14.8 µM (active)"}, {"measurement": "IC50", "setting": "[9]", "result": "> 20 µM (inactive)"}]}, {"smiles": "CCN(C[C@H]1N[C@@](C)(C(=O)OC)[C@H]2C(=O)N(Cc3ccccc3)C(=O)[C@@H]12)C(=O)Nc1ccccc1", "values": [{"measurement": "AC50", "setting": "[2]", "result": "3.81 µM (active)"}, {"measurement": "AC50", "setting": "[3]", "result": "2.42 µM (active)"}, {"measurement": "AC50", "setting": "[4]", "result": "2.92 µM (active)"}, {"measurement": "AC50", "setting": "[6]", "result": "2.56 µM (active)"}]}, {"smiles": "CN(C)CCNC(=O)c1cccc(-c2cnc3c(NC=O)cc(-c4ccc(S(C)(=O)=O)cc4)cn23)c1", "values": [{"measurement": "AC50", "setting": "[7]", "result": "5.29 µM (active)"}, {"measurement": "AC50", "setting": "[1]", "result": "24.1 µM (active)"}]}, {"smiles": "Nc1nonc1-n1nnc(C(=O)N/N=C/c2ccccc2O)c1CN1CCCC1", "values": [{"measurement": "IC50", "setting": "Nonstructural protein 1", "result": "11.4 µM (active)"}, {"measurement": "AC50", "setting": "INS1", "result": "5.79 µM (active)"}]}, {"smiles": "O=C(C[C@H]1CC[C@@H]2[C@H](COC[C@H](O)CN2Cc2cc(F)ccc2F)O1)N[C@@H]1CCN(Cc2ccccc2)C1", "values": [{"measurement": "AC50", "setting": "[10]", "result": "7.42 µM (active)"}]}, {"smiles": "CN1c2ccc(-c3ccccc3)cc2[C@@H]2[C@@H](CCN2C(=O)c2ccccc2)[C@H]1CO", "values": [{"measurement": "AC50", "setting": "[10]", "result": "8.29 µM (active)"}]}, {"smiles": "CN1CCc2ccccc2Cc2[nH]c3ccccc3c2CC1", "values": [{"measurement": "AC50", "setting": "[2]", "result": "> 70 µM (inactive)"}, {"measurement": "AC50", "setting": "[3]", "result": "8.06 µM (active)"}, {"measurement": "AC50", "setting": "[4]", "result": "25.6 µM (active)"}]}, {"smiles": "CCOC(=O)c1cnc2c(C)cccc2c1NCCCN1CCOCC1", "values": [{"measurement": "AC50", "setting": "[1]", "result": "16.6 µM (active)"}]}, {"smiles": "CN1CCN(c2nc(Nc3ccc(O)cc3)nc3ccccc23)CC1", "values": [{"measurement": "AC50", "setting": "[7]", "result": "5.21 µM (active)"}, {"measurement": "IC50", "setting": "Large T antigen", "result": "8.58 µM (active)"}]}, {"smiles": "COc1cc2c(cc1OC)-c1cc3ccc(OC)c(OC)c3c[n+]1CC2", "note": "[PALMATINE CHLORIDE]", "values": [{"measurement": "AC50", "setting": "[7]", "result": "5.19 µM (active)"}]}]}
